Assay results from patent US20130116185A1, “PHOSPHATIDYLINOSITOL 3-KINASES ACTIVITY REGULATOR INCLUDING THE FIFTH ZINC FINGER DOMAIN OF FOG2” (SNU R&DB FOUNDATION, priority 2010, published 2013).
Entries after “also recorded” stand apart in the source; their conditions may differ.

Columns and labels:
[1] = system: HCT116 cells; assay: Colony formation assay in 0.3% agar; type: cell-based; settings: synthesized peptide, one week, colonies over 1 mm counted, FIG. 3C
Experimental: HCT116 cells (1×10^3) were trypsinized and seeded in triplicate in a six-well plate. The serum-free medium containing the synthesized peptide in <Example 3> and 0.3% agar was incubated with the cells. One week after treatment, the generated colony was visualized with 0.5 mg/ml NBT (Nitro blue tetrazolium chloride) and the colonies over 1 mm in diameter were counted.

[2] = system: Akt; assay: Akt phosphorylation by Western blot in Hep3B cells treated with peptide and IGF-1; type: cell-based; settings: 4 μM peptide 2 days, serum-free 24 hr, IGF-1 30 min, FIG. 2D
Experimental: To test whether the Akt activity induced by IGF-1 treatment is inhibited by the synthesized peptides, Hep3B cells were incubated with IGF-1 and ZF-5-wt-24 […] and the expressions of Akt and pAkt were analyzed.
Hep3B cells were incubated with 4 μM ZF-5-wt-24 for 2 days and then further incubated in a serum-free media for 24 hr. Afterwards, the cells were incubated with IGF-1 for 30 min and subject to the Western blot analysis. Mock (DMSO) was used as a control.

[3] = molecular target: T1, PI3K (Homo sapiens, UniProt P27986); assay: PI3K activity in MDA MB 231 cells incubated with zinc finger domain peptides; type: cell-based; set-up: The cell lysates were immunoprecipitated with p85α (sc-1637, Santa Cruz) and Protein G-Sepharose beads; endogenous in cells; settings: synthesized peptides, FIG. 5
Experimental: (§1) For measurement of PI3K activity, 10 μl of sonicated PIP2 (1 μg/μl, Calbiochem), 10 μl of 100 mM MgCl2 and 1 μl of [-^32P]ATP (500 μCi/ml) were added to the kinase buffer (10 mM Tris-HCl (pH 7.4), 150 mM NaCl, 1 mM Na3VO4, 10 mM ZnCl2) and incubated at 37° C. for 30 min. After incubation, 20 μl of 6 N HCl was added to stop the reaction and PIP2 was extracted by treatment with 200 μl of methanol:chloroform (1:1) solution. The amount of radioactively labeled PIP2 in the extract was measured using a scintillator counter.
For peptide treatment, cells were trypsinized to detach them from a culture dish and their aliquot (2×10^5 cells) was incubated with 4 μM peptides in 100 mm dishes. The control was incubated with Mock (DMSO).

[4] = molecular target: T1, PI3K; assay: IGF-1-induced PI3K activation in Hep3B cells incubated with peptides; type: cell-based; set-up: The cell lysates were immunoprecipitated with p85α (sc-1637, Santa Cruz) and Protein G-Sepharose beads; endogenous in cells; host or cells: Hep3B; settings: 4 μM peptides, 48 hr, FIG. 2C
Experimental: as §1
In addition, Hep3B liver cancer cells were incubated with 4 μM peptides for 48 hr and the PI3K activity was analyzed.

[5] = system: MCF 7; assay: Apoptosis by FACS analysis in MCF7 cells; type: cell-based; settings: synthesized peptides, FIG. 7D
From the text: FIG. 7D is a graph showing the apoptotic effect by synthesized zinc finger domain peptides of FOG2 in MCF7 cells according to FACS analysis;

[6] = system: MDA MB 231 cells; assay: Apoptosis by FACS analysis (propidium iodide) in MDA MB 231 cells; type: cell-based; settings: synthesized peptides, FIG. 7C
Experimental: PI3K inactivation has been reported to cause cancer cell apoptosis, and FOG2 is known to inhibit the PI3K activity. To test whether PI3K inactivation by overexpressing FOG2 induces apoptosis, MDA MB 231 cells overexpressed FOG2 were analyzed with FACS.
MDA MB 231 cells were incubated with Full-FOG2[1-1151], FOG2[1-412], FOG2[413-789] or FOG2[802-1151]. The cells (5×10^4) were seeded in a 12-well plate and transfected with 1 μg of Full-FOG2[1-1151], FOG2[1-412], FOG2[413-789] or FOG2[802-1151] using Lipofectamine 2000. The cells were incubated at 37° C. for 2 days and subject to FACS analysis.
The cells were incubated with FOG2 fragments and fixed with 70% ethanol for 16 hr. The fixed cells were stained using RNase (5 mg/ml) and propidium iodide ([…]). The amount of DNA in stained cells was analyzed with Cell Quest program of FACS caliber (Becton Dickinson).

[7] = molecular target: T1, PI3K; assay: In vitro competition analysis (PI3K immunoprecipitated from 293T cell lysates with p85α antibody plus peptides); type: biochemical; set-up: The cell lysates were immunoprecipitated with p85α (sc-1637, Santa Cruz) and Protein G-Sepharose beads; endogenous in cells; settings: peptides 1 μM, 5 μM and 10 μM, dose-dependent, compared with ZF-3-wt-21, FIG. 2B
Experimental: The in vitro competition analysis was performed by PI3K immunoprecipitation in 293T cells. The activated PI3K was extracted from the 293T cell lysates by immunoprecipitating with p85α antibody simultaneously with addition of the synthesized peptides (1 μM, 5 μM and 10 μM). The PI3K activation was induced as described above.

[8] = system: MDA MB 231 cells; assay: Cell migration, modified Boyden chamber method; type: cell-based; settings: 4 μM peptide, 2 days of treatment, 18 hr migration, FIG. 3B
Experimental: MDA MB 231 cells were transfected with pCK-flag (control), FOG2-wt (wild type) and FOG2 mutants having modified zinc finger domain (FOG2-ZF-5-m and FOG2-ZF-6-m). The cell migration was then analyzed using the modified Boyden chamber method (Albini A et al., Cancer Res 1987 47:3239-45). Following the transfection for 24 hr, MDA MB 231 cells (1×10^5) were suspended in a serum-free medium and seeded in triplicate in the upper part of BD chamber ([…] pore size). The lower part was filled with the serum-free medium. Following the incubation at 37° C. for 18 hr, non-migrating cells positioned at the upper surface of filters were cleaned with a cotton swab. The migrating cells passing through the lower surface of filters were fixed with 70% ethanol and treated with the Giemsa staining solution for 50 min. Then, the cells were rinsed with water and observed under a microscope. The cell migration rate was determined by counting the number of cells present in randomly-selected six sections and the migration range was expressed as the average number of cells per a microscopic field.
MDA MB 231 cells were incubated with 4 μM Mock (control, DMSO), 4 μM ZF-5-wt-24, 4 μM ZF-5-m-24, 4 μM ZF-5-wt-20 or 4 μM ZF-3-wt-21. After treatment, the cell migration was analyzed using the modified Boyden chamber method (Albini A et al., Cancer Res 1987 47:3239-45). After 2 days of treatment, MDA MB 231 cells (1×10^5) were suspended in the serum free medium and seeded in triplicate in the upper part of BD chamber ([…] pore size). The lower part was filled with the serum free medium. Following the incubation at 37° C. for 18 hr, non-migrating cells positioned at the upper surface of filters were cleaned with the cotton swab. The migrating cells passing through the lower side surface of filters were fixed with 70% ethanol and stained using the Giemsa stain method. The cell migration rate was determined by counting the number of cells present in randomly-selected six sections and the migration range was expressed as the average number of cells per a microscopic field.

[9] = system: MDA MB 231 cells; assay: Cell proliferation MTT assay; type: cell-based
Experimental: Because the PI3K activation is critical in cell growth, the cell proliferation was analyzed to investigate the inhibitory effect of the FOG2 zinc finger domain using the MTT assay.
MDA MB 231 cells were seeded in a 96-well plate, and transfected with 100 ng DNA of pCKflag, FOG2-wt, FOG2-ZF-5-m or FOG2-ZF-6-m using Lipofectamine 2000. On 3 days post-transfection, the MTT assay was performed.
MDA MB 231 cells (2×10^3 cells) were seeded in a 96-well plate and treated with 4 μM each peptide for 3 days. After the treatment, 50 μl of MTT solution (2 mg/ml) was added to each well, incubated at 37° C. for 1 hr. Then, 150 μl of DMSO was added to each well and the absorbance value of each well was measured at 590 nm using a microplate reader.

T1 sequence (P27986 whole entry, the tested form may be a part): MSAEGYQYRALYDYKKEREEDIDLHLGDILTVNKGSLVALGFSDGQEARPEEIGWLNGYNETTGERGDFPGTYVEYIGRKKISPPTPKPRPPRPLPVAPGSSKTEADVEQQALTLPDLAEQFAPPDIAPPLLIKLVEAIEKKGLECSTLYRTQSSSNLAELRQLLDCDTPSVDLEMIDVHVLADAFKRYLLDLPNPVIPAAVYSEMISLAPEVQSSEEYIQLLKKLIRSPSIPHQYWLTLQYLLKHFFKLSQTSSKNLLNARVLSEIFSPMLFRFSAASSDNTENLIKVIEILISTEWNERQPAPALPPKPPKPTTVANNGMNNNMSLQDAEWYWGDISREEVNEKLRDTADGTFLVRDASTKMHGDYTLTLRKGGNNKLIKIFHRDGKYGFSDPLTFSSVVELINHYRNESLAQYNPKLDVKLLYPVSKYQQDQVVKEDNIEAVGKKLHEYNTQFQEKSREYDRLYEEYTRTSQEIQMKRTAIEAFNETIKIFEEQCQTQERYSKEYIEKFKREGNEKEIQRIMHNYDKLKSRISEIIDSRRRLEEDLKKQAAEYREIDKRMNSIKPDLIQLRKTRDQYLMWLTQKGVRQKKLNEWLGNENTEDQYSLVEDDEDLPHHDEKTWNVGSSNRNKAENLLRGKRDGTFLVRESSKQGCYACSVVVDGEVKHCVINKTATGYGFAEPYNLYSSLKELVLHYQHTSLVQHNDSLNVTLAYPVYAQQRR

ZF-5-wt-24: The peptide comprising a portion of the fifth zinc finger domain of FOG2 (24 amino acids); residues 547-570 (GATCFECNITFNNLDNYLVHKKHY)
number of colonies / colony formation [1]: reduces the colony formation; also recorded: reduced
Akt phosphorylation induced by IGF-1 stimulation [2]: reduced
PI3K activity [3]: decrease PI3K activity
IGF-1-induced PI3K activation [4]: inhibited
apoptosis [5]: promoted apoptosis
apoptosis [6]: promoted apoptosis
reduction of PI3K activity [7]: about 40%
reduction of cell migration [8]: reduce the cell migration
reduction of cell proliferation ([9]; 4 μM peptide for 3 days): about 40%
inhibitory effect on cell proliferation ([9]; synthesized peptide, increasing concentration, FIG. 6B): reduces the cancer cell proliferation; also recorded: became more prominent as ZF-5-wt-24 concentration increased
